Measurements taken from publication PMC9657696, “Novel BH4-BCL-2 Domain Antagonists Induce BCL-2-Mediated Apoptosis in Triple-Negative Breast Cancer” (Cancers, 2022).
Like-named read-outs stand apart in the source and are kept apart here.

Columns and labels:
[1] = system: BT549 cells; assay: MTT cell viability assay, BT549; type: cell-based; conditions: Homo sapiens
Method: An MTT (3-(4,5-dimethylthiazol-2-yl)-2,5-diphenyltetrazolium bromide)-based colorimetric assay was performed to measure the cell viability. On a 96-well plate, cells were seeded at a density of 3000–5000 cells/well. The cell number for the assay was decided based on the exponential growth of untreated cells. The cells were treated with compounds for 72 h followed by incubation with MTT for 4 h at 37 °C. The formazan crystals were dissolved in DMSO and absorbance was measured at 540 nm. The percentage viability was calculated as % cell viability = (OD treated cells/OD control cells) × 100, and the IC50 was estimated by curve-fitting using the non-linear regression of a dose–response curve. The experiments were repeated at least two to three times.
The top 29 lead molecules, guided by the in silico results, were subjected to further in vitro validation by assessing the cellular cytotoxicity in both cancer (Figure 3a) and normal cell lines (Supplementary Figure S2a) using the MTT assay. Moreover, we performed MTT (Supplementary Figure S3c) and Annexin V assays on an additional cell line, BT549, a triple-negative breast cancer model, to validate the activity of the compounds (Supplementary Figure S4). […] We also provided the AUC plots for the top three compounds for a better understanding of the activity (Supplementary Figure S5). […]

[2] = system: MDA-MB-231 xenografts; assay: MDA-MB-231 xenograft in athymic mice; type: in vivo
Method: Mice were sheltered in the animal facility of Sri Ramachandra Medical College and Research Institute (Chennai, India), which has been certified as a pathogen-free animal house for performing mice experiments. All the methods were carried out according to the IAEC guidelines and regulations. Experimental procedures were framed and approved by the Institutional Animal Ethical Committee (IAEC) (IAEC approval number: IAEC/57/SRIHER/639/2019). The entire study was in accordance with the ARRIVE guidelines to ensure the safety of the animals. The sizes of the mice groups were chosen in accordance with statistical significance; the measurements and analysis were performed in an unbiased manner.
4–6 week-old female athymic mice were transplanted with MDA-MB-231 triple-negative breast tumor cells. The growth media with MDA-MB-231 cells and Matrigel (BD Biosciences) at a 1:1 ratio was mixed and injected into mice. The tumor lengths and widths were measured with an electronic caliper 2–3 times a week. The tumor volume was calculated using the formula: (length × width^2)/2. All of the mice were randomized after 10 days, as the tumor volume reached approximately 80–90 mm^3. A total of 25 mice were sorted into 5 treatment groups, followed by a compound treatment (SM216, SM396, SM949, and ABT199) or vehicle (n = 5 for each group). The drug compounds were formulated in PBS and administrated as i.p doses (100 mg/Kg w) for two schedules per week. Tumor growth inhibition (TGImax) was calculated using the following equation: (1) Tumor Growth Inhibition =1−mean of volume of treated at day x−mean of volume treated at day 0/mean of volume of control at day x−mean of volume of control at day 0×100
As the tumor size exceeded 600 mm^3, we euthanized the mice for ethical reasons. The euthanasia procedure used was carbon dioxide asphyxiation followed by cervical dislocation. The mean of the tumor volume ± SEM for different time points was represented until we sacrificed at least one mouse in a group.
To test the in vivo anti-cancer efficacy of the novel small molecules viz. SM216, SM396, and SM949, 4–6 weeks old female athymic mice were xenografted with MDA-MB-231 cells on the mammary fat pads and palpable tumors were induced. […] Tumor volumes were measured at regular intervals and the data were tabulated. […] The growth kinetics and maximal tumor growth inhibition (TGImax) are depicted as tumor volumes (five groups of mice treated with different drugs) in Figure 6e,f. The average tumor volume for all groups on day 0 of treatment was 92.77 mm^3. We observed that all three lead molecules inhibited tumor growth efficiently compared to the vehicle control. […] These compounds achieved regression of 60% after 20 days of treatment. […] Moreover, these compounds were well tolerated with no weight loss and hemolysis in all treatment groups. The survival was 100% for all treatment mice groups until the termination of the study. […] A decrease in the expression of PCNA was observed upon treatment with SM396 compared to the vehicle control.

What does the source list for `CC1(C)CCC(CN2CCN(c3ccc(C(=O)NS(=O)(=O)c4ccc(NCC5CCOCC5)c([N+](=O)[O-])c4)c(Oc4cnc5[nH]ccc5c4)c3)CC2)=C(c2ccc(Cl)cc2)C1` [ABT-199, venetoclax]?
IC50 ([1]; BT-549, Supplementary Figure S3c legend, read-out: IC50 (dose-response curve fitting)): 7.19 µM; IC50 ([1]; BT-549, read-out: IC50 (non-linear regression of dose-response curves)): 7.2 µM; Tumor Volume, Mean ([2]; Day 0, i.p. 100 mg/kg, two schedules per week): 95.35 mm^3; Tumor Volume, Mean ([2]; Day 6, i.p. 100 mg/kg): 162.15 mm^3; Tumor Volume, Mean ([2]; Day 9, i.p. 100 mg/kg (column head printed SEM)): 313.94 mm^3; Tumor Volume, Mean ([2]; Day 13, i.p. 100 mg/kg): 313.03 mm^3; Tumor Volume, Mean ([2]; Day 15, upon 4 doses, i.p. 100 mg/kg): 371.94 mm^3; Tumor Volume, Mean ([2]; Day 17, i.p. 100 mg/kg): 424.83 mm^3; Tumor Volume, Mean ([2]; Day 20, i.p. 100 mg/kg): 382.6 mm^3
